Like-named read-outs stand apart in the source and are kept apart here.
Columns and labels:
S1P2-5 = experiment: competitive S1Ps cell membrane binding assay against [32P]S1P, S1P2-5 reported together; details: for selectivity over S1P2-5: in words
Text: (§2) One way to measure affinity is use of a general competition binding assay.

S1P1 [1] = biological target: T1, S1P1 (Mus musculus, UniProt O08530); experiment: PET with [18F]TZ4877 in S. aureus infected mice; format: in vivo; details: microPET, in words
T1 construct: from tissue; host or cells: living mice (whole body, brain, tissues)
Experimental: Mice were euthanized at 30 min, and S. aureus was injected 24 hours prior to radiotracer injection. […] IHC staining was used for confirmation in infected versus sham controls (FIG. 12E). Increasing signals of the inflammation related cytokines and chemokines were detected in liver.

S1P2 = S1P2 (Homo sapiens, UniProt O95136); experiment: competitive S1Ps cell membrane binding assay against [32P]S1P, S1P2; details: Table 6
S1P3 = S1P3 (Homo sapiens, UniProt Q99500); experiment: competitive S1Ps cell membrane binding assay against [32P]S1P, S1P3; details: Table 6
S1P4 = biological target: T2, S1P4 (Homo sapiens, UniProt O95977); experiment: competitive S1Ps cell membrane binding assay against [32P]S1P, S1P4; details: Table 6; read-out: IC50 for S1P4
T2 sequence (O95977 1-384): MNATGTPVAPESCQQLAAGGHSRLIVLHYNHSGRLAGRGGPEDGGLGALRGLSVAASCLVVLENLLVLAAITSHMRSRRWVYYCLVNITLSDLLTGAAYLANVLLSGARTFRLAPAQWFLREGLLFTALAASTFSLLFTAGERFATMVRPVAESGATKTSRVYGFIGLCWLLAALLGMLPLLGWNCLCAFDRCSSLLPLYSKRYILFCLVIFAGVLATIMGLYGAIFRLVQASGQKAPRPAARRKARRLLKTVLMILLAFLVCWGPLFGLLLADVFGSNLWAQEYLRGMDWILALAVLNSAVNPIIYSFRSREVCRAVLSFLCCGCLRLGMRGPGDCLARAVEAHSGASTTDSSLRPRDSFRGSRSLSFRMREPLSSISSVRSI

S1P5 = S1P5 (Homo sapiens, UniProt Q9H228); experiment: competitive S1Ps cell membrane binding assay against [32P]S1P, S1P5
Text: as §2

S1P1 [2] = biological target: S1P1 (Homo sapiens, UniProt P21453); experiment: competitive S1Ps cell membrane binding assay against [32P]S1P, S1P1; details: for IC50 for S1P1 (nM): Table 6, single determinations
Text: as §2

S1PR1 = experiment: NHP PET brain imaging blocking studies; format: in vivo, nonhuman primate; details: NHP PET self-blocking, in words
[3] = Ex-vivo rat biodistribution and EAE rat PET studies of [18F]TZ82112; details: in words
[4] = HPLC radiometabolite analysis of rat plasma and rat brain, [18F]TZ82112; format: in vivo; details: in words
Text: (§1) Considering the high NHP brain uptake and clinically favorable pharmacokinetics compared to other F-18 S1PR1 radiotracers such as [^18F]FCS1P1 and [^18F]4877, we believe [^18F]TZ82112 is worth to transfer into clinical evaluation to confirm [18F]TZ82112 is the best S1PR1 radiotracer for clinical assessment of the neuroinflammation status by measurement of the S1PR1 receptor expression level. On the other side, as a S1PR1 radiotracer, [^18F]TZ82112 has its limitation for preclinical investigation because it quickly metabolites to form a lipophilic radiometabolite which will increase noise signal for PET measurement of S1PR1 expression in inflamed tissues.

[5] = HPLC radiometabolite analysis of nonhuman primate plasma, [18F]TZ82112; format: in vivo; details: NHP plasma compared with rat plasma, in words
Text: as §1

[6] = Table 5, read-out: IC50 (nM) S1P5
[7] = Table 7, read-out: IC50 (nM) S1P2-5
[8] = read-out: IC50 (nM) S1P1, Table 7

Sequence of S1P1 (Homo sapiens, UniProt P21453) (P21453 whole entry, species assumed): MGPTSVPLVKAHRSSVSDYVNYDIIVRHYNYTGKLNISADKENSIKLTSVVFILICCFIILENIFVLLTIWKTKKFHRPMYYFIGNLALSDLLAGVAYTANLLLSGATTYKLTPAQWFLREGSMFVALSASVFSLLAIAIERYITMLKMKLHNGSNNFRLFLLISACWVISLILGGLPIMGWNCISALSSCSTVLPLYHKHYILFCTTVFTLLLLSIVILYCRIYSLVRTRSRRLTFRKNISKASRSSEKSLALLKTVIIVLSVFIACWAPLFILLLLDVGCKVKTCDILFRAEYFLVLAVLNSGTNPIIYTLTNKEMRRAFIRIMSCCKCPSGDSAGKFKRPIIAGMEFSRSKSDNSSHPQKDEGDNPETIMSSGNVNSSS
Sequence of S1P5 (Q9H228 whole entry, species assumed): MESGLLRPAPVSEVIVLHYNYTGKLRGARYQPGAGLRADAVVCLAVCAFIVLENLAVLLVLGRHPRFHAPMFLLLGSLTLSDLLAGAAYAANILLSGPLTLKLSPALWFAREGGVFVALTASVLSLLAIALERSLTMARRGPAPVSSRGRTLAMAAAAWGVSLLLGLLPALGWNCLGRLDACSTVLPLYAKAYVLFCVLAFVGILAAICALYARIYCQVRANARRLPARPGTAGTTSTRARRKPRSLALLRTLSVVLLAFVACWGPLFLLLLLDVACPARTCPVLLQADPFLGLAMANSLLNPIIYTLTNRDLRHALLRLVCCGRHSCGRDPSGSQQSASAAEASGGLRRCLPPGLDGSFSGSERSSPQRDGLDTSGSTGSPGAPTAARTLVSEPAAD
Sequence of S1P2 (O95136 whole entry, species assumed): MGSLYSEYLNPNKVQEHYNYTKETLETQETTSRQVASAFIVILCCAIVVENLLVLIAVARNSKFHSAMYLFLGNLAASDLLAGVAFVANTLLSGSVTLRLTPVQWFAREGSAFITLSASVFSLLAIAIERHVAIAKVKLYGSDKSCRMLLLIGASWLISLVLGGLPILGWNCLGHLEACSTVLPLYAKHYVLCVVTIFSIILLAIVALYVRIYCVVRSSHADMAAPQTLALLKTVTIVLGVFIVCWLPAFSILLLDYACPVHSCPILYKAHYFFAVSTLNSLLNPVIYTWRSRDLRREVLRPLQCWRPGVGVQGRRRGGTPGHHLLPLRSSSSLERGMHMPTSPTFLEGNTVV
Sequence of S1P3 (Q99500 whole entry, species assumed): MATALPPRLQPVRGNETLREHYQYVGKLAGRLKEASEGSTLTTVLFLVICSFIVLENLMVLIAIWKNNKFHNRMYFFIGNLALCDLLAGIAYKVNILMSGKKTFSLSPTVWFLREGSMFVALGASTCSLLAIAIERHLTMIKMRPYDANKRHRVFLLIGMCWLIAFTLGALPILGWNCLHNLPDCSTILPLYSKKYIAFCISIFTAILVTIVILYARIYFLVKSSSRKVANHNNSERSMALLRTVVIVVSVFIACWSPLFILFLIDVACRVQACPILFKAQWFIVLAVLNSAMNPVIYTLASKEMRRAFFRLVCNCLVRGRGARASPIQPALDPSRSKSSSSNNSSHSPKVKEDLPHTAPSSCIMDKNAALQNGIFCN
T1 sequence (O08530 whole entry): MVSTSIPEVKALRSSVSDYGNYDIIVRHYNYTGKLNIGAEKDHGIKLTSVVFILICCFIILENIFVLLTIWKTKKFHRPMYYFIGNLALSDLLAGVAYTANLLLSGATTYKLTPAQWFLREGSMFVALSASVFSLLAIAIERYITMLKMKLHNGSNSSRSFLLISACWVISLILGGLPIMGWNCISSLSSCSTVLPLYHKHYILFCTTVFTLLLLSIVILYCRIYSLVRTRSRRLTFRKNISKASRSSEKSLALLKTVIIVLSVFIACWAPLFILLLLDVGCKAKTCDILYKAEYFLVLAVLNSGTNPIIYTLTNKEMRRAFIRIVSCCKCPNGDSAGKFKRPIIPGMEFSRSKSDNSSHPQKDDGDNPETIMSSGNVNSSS

Row | Structure (SMILES) | IC50 (S1P2-5; read-out: IC50 for S1P2-5) [nM] | brain uptake, infected versus sham mice (S1P1 [1]) | IC50 (S1P2) [nM] | IC50 (S1P3) [nM] | IC50 (S1P4) [nM] | IC50 (S1P5; [6]) [nM] | IC50 (S1P5; Table 6, read-out: IC50 for S1P5) [nM] | IC50 (S1P2-5; [7]) [nM] | selectivity over S1P2-5 (S1P2-5) | IC50 (S1P1 [2]; IC50 for S1P1, running text) [nM] | IC50 for S1P1 (nM) (S1P1 [2]) | IC50 (S1P1 [2]; [8]) [nM] | IC50 for S1P3 (nM) (S1P3) | IC50 for S1P5 (nM) (S1P5; Table 6) | brain uptake after pretreatment with cold TZ82112 (S1PR1) | spinal cord uptake compared to the normal controls ([3]; EAE rat model of MS, PET) | brain uptake and washout ([3]; ex-vivo rat biodistribution) | radiometabolite in brain tissue ([4]; rat brain tissue samples) | radiometabolite in plasma ([4]; rat plasma) | percentage of the same radiometabolite in plasma [5]
1 | OCCOCc1ccc(-c2noc(-c3ccc(OCC[18F])c(C(F)(F)F)c3)n2)cc1 [[^18F]TZ4877] | > 1000 | higher uptake in infected mice | – | – | – | – | – | – | – | – | – | – | – | – | – | – | – | – | – | –
2 | Cc1ccccc1-c1ccc(-c2nc(-c3ccc(CN(C)CCCC(=O)O)c(F)c3)no2)cc1C(F)(F)F [TZ82-48] | – | – | > 1000 | 189 | > 1000 | 23.1 | 194 | > 1000 | good selectivity | < 20 | Not detected | 0.8 ± 0.2 | – | – | – | – | – | – | – | –
3 | Cc1ccccc1-c1ccc(-c2nc(-c3ccc(CN(C)CC(=O)O)c(F)c3)no2)cc1C(F)(F)F [TZ82-47] | – | – | > 1000 | – | > 1000 | 77.3 | – | > 1000 | good selectivity | < 20 | Not detected | 7.6 ± 0.2 | Not fit | Not fit | – | – | – | – | – | –
4 | CN(CCCO)Cc1ccc(-c2noc(-c3ccc(OCC[18F])c(C(F)(F)F)c3)n2)cc1F [[^18F]TZ82112] | – | – | – | – | – | – | – | – | – | – | – | – | – | – | reduce the its brain uptake | increased spinal cord uptake | high initial brain uptake and good brain washout kinetics | no radioactive metabolite | quickly generated a high percentage of a radiometabolite | much lower
